Experimental data as given in PubChem BioAssay AID256 (DTP/NCI, 2004).
Several values for one entry are separate records, joined by “and”; a condition that tells them apart may be missing. Identical values can stand only once. Toxic doses and inconclusive results are not listed. How the source made its calls: active means survival T/C of 150% or more; inactive means T/C below 125% in these data.

Tested on: CD2F1 mice, L1210 leukemia ip, survival T/C
Assay: NCI In Vivo Anticancer Drug Screen. Data for tumor model L1210 Leukemia (intraperitoneal) in CD2F1 (CDF1) mice
Settings: higher = longer survival
How it was run: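 Activity against a transplanted murine tumor was judged by comparing the compound group with a vehicle group. The outcome in the treated animals was divided by that in the controls.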

[1] = endpoint: mean survival time, dose: 100.0 mg/kg/injection, schedule: Q01DX001 (ip), vehicle: saline
[2] = endpoint: mean survival time, dose: 100.0 mg/kg/injection, schedule: Q04DX003 (ip), vehicle: saline with Tween-80
[3] = endpoint: mean survival time, dose: 200.0 mg/kg/injection, schedule: Q04DX003 (ip), vehicle: saline with Tween-80
[4] = endpoint: mean survival time, dose: 400.0 mg/kg/injection, schedule: Q04DX003 (ip), vehicle: saline with Tween-80
[5] = endpoint: mean survival time, dose: 12.5 mg/kg/injection, schedule: Q01DX009 (ip), vehicle: saline with Tween-80
[6] = endpoint: mean survival time, dose: 50.0 mg/kg/injection, schedule: Q01DX009 (ip), vehicle: saline with Tween-80
[7] = endpoint: mean survival time, dose: 100.0 mg/kg/injection, schedule: Q01DX009 (ip), vehicle: saline with Tween-80
[8] = endpoint: mean survival time, dose: 200.0 mg/kg/injection, schedule: Q01DX009 (ip), vehicle: saline with Tween-80

Measured: T/C

CSc1nc(NC2OC(CO)C(O)C(O)C2O)c(I)c(=O)[nH]1 (configuration not stated)
inactive: endpoint: median survival time, dose: 12.5 mg/kg/injection, schedule: Q01DX005 (ip), vehicle: saline with Tween-80 100 % of control | endpoint: median survival time, dose: 25.0 mg/kg/injection, schedule: Q01DX005 (ip), vehicle: saline with Tween-80 98 % of control | endpoint: median survival time, dose: 50.0 mg/kg/injection, schedule: Q01DX005 (ip), vehicle: saline with Tween-80 100 % of control | endpoint: median survival time, dose: 100.0 mg/kg/injection, schedule: Q01DX005 (ip), vehicle: saline with Tween-80 100 % of control | endpoint: median survival time, dose: 200.0 mg/kg/injection, schedule: Q01DX005 (ip), vehicle: saline with Tween-80 102 % of control

O=S(=O)(O)Cc1ccccc1O
inactive: [1] 100 % of control | endpoint: mean survival time, dose: 100.0 mg/kg/injection, schedule: Q04DX003 (ip), vehicle: saline 96 % of control | endpoint: mean survival time, dose: 200.0 mg/kg/injection, schedule: Q01DX001 (ip), vehicle: saline 100 % of control | endpoint: mean survival time, dose: 200.0 mg/kg/injection, schedule: Q04DX003 (ip), vehicle: saline 95 % of control | endpoint: mean survival time, dose: 400.0 mg/kg/injection, schedule: Q01DX001 (ip), vehicle: saline 102 % of control | endpoint: mean survival time, dose: 400.0 mg/kg/injection, schedule: Q04DX003 (ip), vehicle: saline 89 % of control

CCN(CC)CCCN(CC(=O)O)CC(=O)O
inactive: [1] 103 % of control

NNc1nc(=O)[nH]nc1Sc1ccccc1
inactive: endpoint: mean survival time, dose: 75.0 mg/kg/injection, schedule: Q01DX001 (ip), vehicle: saline 96 % of control | endpoint: mean survival time, dose: 150.0 mg/kg/injection, schedule: Q01DX001 (ip), vehicle: saline 101 % of control | endpoint: mean survival time, dose: 300.0 mg/kg/injection, schedule: Q01DX001 (ip), vehicle: saline 97 % of control

O=[N+]([O-])c1ccc2c(c1)-c1[nH]c3ccccc3c1CS2
inactive: endpoint: mean survival time, dose: 100.0 mg/kg/injection, schedule: Q01DX009 (ip), vehicle: Klucel (hydroxypropylcellulose) (HPC) 102 % of control | endpoint: mean survival time, dose: 200.0 mg/kg/injection, schedule: Q01DX009 (ip), vehicle: Klucel (hydroxypropylcellulose) (HPC) 101 % of control

C[n+]1c(-c2cccc(-c3ccccc3)c2)c2cc([N+](=O)[O-])ccc2c2ccccc21
inactive: endpoint: mean survival time, dose: 1.56 mg/kg/injection, schedule: Q01DX009 (ip), vehicle: Klucel (hydroxypropylcellulose) (HPC) 93 % of control | endpoint: mean survival time, dose: 3.13 mg/kg/injection, schedule: Q01DX009 (ip), vehicle: Klucel (hydroxypropylcellulose) (HPC) 94 % of control | endpoint: mean survival time, dose: 6.25 mg/kg/injection, schedule: Q01DX009 (ip), vehicle: Klucel (hydroxypropylcellulose) (HPC) 98 % of control | endpoint: mean survival time, dose: 12.5 mg/kg/injection, schedule: Q01DX009 (ip), vehicle: Klucel (hydroxypropylcellulose) (HPC) 92 % of control | endpoint: mean survival time, dose: 25.0 mg/kg/injection, schedule: Q01DX009 (ip), vehicle: Klucel (hydroxypropylcellulose) (HPC) 96 % of control | endpoint: mean survival time, dose: 25.0 mg/kg/injection, schedule: Q01DX009 (ip), vehicle: water 97 % of control

O=[N+]([O-])c1ccc(N/N=C(\c2ccccc2)C2OCCC2c2ccccc2)c([N+](=O)[O-])c1 (configuration not stated)
inactive: [2] 97 % of control | [3] 91 % of control | [4] 94 % of control

COc1cc(OC)c(NC(=O)Nc2cc(C)on2)cc1Cl
inactive: [5] 98 % of control | endpoint: mean survival time, dose: 25.0 mg/kg/injection, schedule: Q01DX009 (ip), vehicle: saline with Tween-80 92 % of control | [6] 95 % of control

CCCCS(=O)CC(CO)NC(=O)/C=C/c1c(C)[nH]c(=O)[nH]c1=O (configuration not stated)
inactive: endpoint: mean survival time, dose: 0.63 mg/kg/injection, schedule: Q01DX009 (ip), vehicle: water 115 % of control and 105 % of control | endpoint: mean survival time, dose: 1.25 mg/kg/injection, schedule: Q01DX009 (ip), vehicle: water 112 % of control | endpoint: mean survival time, dose: 2.5 mg/kg/injection, schedule: Q01DX009 (ip), vehicle: water 118 % of control and 121 % of control | endpoint: mean survival time, dose: 5.0 mg/kg/injection, schedule: Q01DX009 (ip), vehicle: water 116 % of control | endpoint: mean survival time, dose: 10.0 mg/kg/injection, schedule: Q01DX009 (ip), vehicle: water 98 % of control

C[n+]1c(-c2cc(C(F)(F)F)cc(C(F)(F)F)c2)c2cc(N)ccc2c2ccc(N)cc21
inactive: endpoint: mean survival time, dose: 6.25 mg/kg/injection, schedule: Q01DX005 (ip), vehicle: saline with Tween-80 106 % of control | endpoint: mean survival time, dose: 12.5 mg/kg/injection, schedule: Q01DX005 (ip), vehicle: saline with Tween-80 101 % of control | endpoint: mean survival time, dose: 25.0 mg/kg/injection, schedule: Q01DX005 (ip), vehicle: saline with Tween-80 106 % of control | endpoint: mean survival time, dose: 50.0 mg/kg/injection, schedule: Q01DX005 (ip), vehicle: saline with Tween-80 111 % of control | endpoint: mean survival time, dose: 100.0 mg/kg/injection, schedule: Q01DX005 (ip), vehicle: saline with Tween-80 116 % of control

CCOC(=O)N1C2c3ccccc3C(c3ccccc32)N1C(=O)OCC
inactive: [7] 94 % of control | [2] 95 % of control | [8] 89 % of control | [3] 98 % of control | [4] 93 % of control

CN(CC(=O)O)C(=O)c1cc2ccccc2[nH]1
inactive: endpoint: mean survival time, dose: 37.5 mg/kg/injection, schedule: Q04DX002 (ip), vehicle: saline with Tween-80 101 % of control | endpoint: mean survival time, dose: 75.0 mg/kg/injection, schedule: Q04DX002 (ip), vehicle: saline with Tween-80 89 % of control | endpoint: mean survival time, dose: 150.0 mg/kg/injection, schedule: Q04DX002 (ip), vehicle: saline with Tween-80 93 % of control

C=C1CC2(CCC23COC(=O)C3=C)OC1=O (configuration not stated)
inactive: endpoint: mean survival time, dose: 0.78 mg/kg/injection, schedule: Q01DX009 (ip), vehicle: other 107 % of control | endpoint: mean survival time, dose: 0.78 mg/kg/injection, schedule: Q04DX002 (ip), vehicle: other 100 % of control | endpoint: mean survival time, dose: 0.78 mg/kg/injection, schedule: Q04DX003 (ip), vehicle: other 100 % of control | endpoint: mean survival time, dose: 1.56 mg/kg/injection, schedule: Q01DX009 (ip), vehicle: other 102 % of control | endpoint: mean survival time, dose: 1.56 mg/kg/injection, schedule: Q04DX002 (ip), vehicle: other 105 % of control | endpoint: mean survival time, dose: 1.56 mg/kg/injection, schedule: Q04DX003 (ip), vehicle: other 108 % of control | endpoint: mean survival time, dose: 3.12 mg/kg/injection, schedule: Q01DX009 (ip), vehicle: other 95 % of control | endpoint: mean survival time, dose: 3.12 mg/kg/injection, schedule: Q04DX002 (ip), vehicle: other 105 % of control | endpoint: mean survival time, dose: 3.12 mg/kg/injection, schedule: Q04DX003 (ip), vehicle: other 102 % of control | endpoint: mean survival time, dose: 6.25 mg/kg/injection, schedule: Q01DX009 (ip), vehicle: other 107 % of control | endpoint: mean survival time, dose: 6.25 mg/kg/injection, schedule: Q04DX002 (ip), vehicle: other 109 % of control | endpoint: mean survival time, dose: 6.25 mg/kg/injection, schedule: Q04DX003 (ip), vehicle: other 105 % of control | endpoint: mean survival time, dose: 12.5 mg/kg/injection, schedule: Q01DX001 (ip), vehicle: other 107 % of control

NNC(=O)CCCCCCCCCCCCCCO
inactive: endpoint: mean survival time, dose: 200.0 mg/kg/injection, schedule: Q01DX001 (ip), vehicle: saline with Tween-80 87 % of control | endpoint: mean survival time, dose: 400.0 mg/kg/injection, schedule: Q01DX001 (ip), vehicle: saline with Tween-80 90 % of control

CC(C)(C)CC(C)(C)SSc1n[nH]c(=S)s1
inactive: endpoint: mean survival time, dose: 2.5 mg/kg/injection, schedule: Q04DX003 (ip), vehicle: Klucel (hydroxypropylcellulose) (HPC) 102 % of control | endpoint: mean survival time, dose: 5.0 mg/kg/injection, schedule: Q04DX003 (ip), vehicle: Klucel (hydroxypropylcellulose) (HPC) 101 % of control | endpoint: mean survival time, dose: 10.0 mg/kg/injection, schedule: Q04DX003 (ip), vehicle: Klucel (hydroxypropylcellulose) (HPC) 98 % of control and 101 % of control

O=c1oc(-c2cccc([N+](=O)[O-])c2)nc2ccccc12
inactive: [2] 100 % of control | [3] 88 % of control

Clc1nc2ccccc2nc1CI
inactive: endpoint: mean survival time, dose: 100.0 mg/kg/injection, schedule: Q04DX003 (ip), vehicle: acetone 100 % of control

CC(C)Oc1ccc(N2C(=O)C(C)CNC2=S)cc1 (configuration not stated)
inactive: endpoint: mean survival time, dose: 75.0 mg/kg/injection, schedule: Q01DX001 (ip), vehicle: other 96 % of control | endpoint: mean survival time, dose: 150.0 mg/kg/injection, schedule: Q01DX001 (ip), vehicle: other 97 % of control | endpoint: mean survival time, dose: 300.0 mg/kg/injection, schedule: Q01DX001 (ip), vehicle: other 96 % of control

C(=C(/C=C/c1ccccc1)/C=C/c1ccccc1)C(=C/c1ccccc1)/c1ccccc1
inactive: endpoint: mean survival time, dose: 12.5 mg/kg/injection, schedule: Q01DX001 (ip), vehicle: saline with Tween-80 100 % of control | [5] 91 % of control | endpoint: mean survival time, dose: 25.0 mg/kg/injection, schedule: Q01DX001 (ip), vehicle: saline with Tween-80 90 % of control | endpoint: mean survival time, dose: 50.0 mg/kg/injection, schedule: Q01DX001 (ip), vehicle: saline with Tween-80 92 % of control | [6] 86 % of control

O=C1N(C2CCCCC2)CC2C(c3ccccc3)NNC12O (configuration not stated)
inactive: [7] 103 % of control | [2] 97 % of control | [8] 90 % of control | [3] 97 % of control | endpoint: mean survival time, dose: 400.0 mg/kg/injection, schedule: Q01DX009 (ip), vehicle: saline with Tween-80 100 % of control | [4] 98 % of control
